The nature of this test: Inhibition of Saccharomyces cerevisiae alpha-glucosidase using p-nitrophenyl-alpha-D-glucopyranoside as substrate measured after 30 mins.

On to `C/C=C/c1cc(=O)c2ccccc2n1C`, for which the IC50 is above 250 µM. The molecule `CCCC[C@@H](CC)COC(=O)c1cn[nH]n1` registered an IC50 of 138 µM.

(Values after ChEMBL document CHEMBL4190275, “Quinoliniumolate and 2H-1,2,3-Triazole Derivatives from the Stems of Paramignya trimera and Their α-Glucosidase Inhibitory Activities: In Vitro and in Silico Studies” (J Nat Prod, 2017).)
